# Measurements as given in US20110306636A1, “OXAZOLE PYRIDINE DERIVATIVES USEFUL AS S1P1 RECEPTOR AGONISTS” (Merck Serono SA, priority 2009, published 2011).
# pEC50: −log10 of the molar value. Structures can show the parent of a compound that is named as a salt. Where two headings read alike, the source gives them in different places.
# Legend:
# S1P1 = S1P1 (Homo sapiens, UniProt P21453); test: Receptor binding assay, [33P]sphingosine 1-phosphate competition, S1P1
# Method: (§1) Membranes Preparation: Membranes were prepared from CHO cells expressing S1P1 or S1P3 for use in ligand and 35S-GTPγS binding studies. Cells were suspended in 50 mM TRIS, pH 7.4, 2 mM EDTA, 250 mM Sucrose (buffer A) and 1× Complete protease inhibitor cocktail (Roche), and disrupted at 4° C. by N2 decompression using a cell disruption bomb (Parr Instrument). Following centrifugation at 1000 RPM for 10 min at 4° C., the supernatant was diluted (2×) in buffer A and centrifuged again at 19000 RPM for 75 min at 4° C. The pellet was then suspended in 10 mM HEPES, pH 7.4, 1 mM EDTA, 250 mM Sucrose (Buffer B), and 1× Complete EDTA-free protease inhibitor cocktail and homogenized using a potter. Membranes were flash frozen in liquid N2 and stored at −80° C.
# (§2) Receptor binding assay: [33P]sphingosine 1-phosphate (3000 Ci/mmol; American Radiolabeled Chemicals, Inc.) was added to test compounds in 20% DMSO by competition. Membranes and WGA SPA beads (GE Healthcare) were added to give a final volume of 100 μl in 96-well plates or 50 μl in 384-well plates with assay concentrations of 30 pM or 15 pM [33P]sphingosine 1-phosphate (respectively for S1P1 or S1P3), 50 mM HEPES, pH 7.5, 5 mM MgCl2, 100 mM NaCl, 0.4% fatty acid-free BSA, 1-5 μg/well of proteins in 96-well plates vs 0.6-1 μg/well of proteins in 384-well plates and 100 μg/well of WGA SPA beads in 96-well plates vs 75 μg/well of WGA SPA beads in 384-well plates. Binding was performed for 60 min at RT on a shaker and bound radioactivity was measured on a PerkinElmer 1450 MicroBeta counter. Triplicate samples were averaged and normalized as purcentage of inhibition relative to total binding (only DMSO in well) and non specific binding (1000-fold excess of unlabeled S1P). Binding data were analyzed using the GraphPad Prism program or Genedata software.
# S1P3 = S1P3 (Homo sapiens, UniProt Q99500); test: Receptor binding assay, [33P]sphingosine 1-phosphate competition, S1P3
# S1P3, sequence (Q99500 whole entry, species assumed): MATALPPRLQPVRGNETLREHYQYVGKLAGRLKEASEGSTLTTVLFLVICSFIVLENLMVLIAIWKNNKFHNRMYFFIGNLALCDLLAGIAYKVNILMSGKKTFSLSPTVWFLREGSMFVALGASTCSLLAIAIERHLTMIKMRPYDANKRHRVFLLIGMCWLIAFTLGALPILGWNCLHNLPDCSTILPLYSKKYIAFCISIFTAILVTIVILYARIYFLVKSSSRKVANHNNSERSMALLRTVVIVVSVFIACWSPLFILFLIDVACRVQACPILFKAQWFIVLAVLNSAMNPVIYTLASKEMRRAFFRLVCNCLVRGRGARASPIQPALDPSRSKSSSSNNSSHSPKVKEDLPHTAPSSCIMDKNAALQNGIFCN
# Method: as §1, §2
# [1] = target: T1, human S1P1 Receptor fused to the green fluorescent protein (EGFP) (Homo sapiens, UniProt P21453); test: Internalization of S1P1 in S1P1-U2OS cells by cell imaging analysis; assay type: cell-based; details: 1 hour incubation, 384-well
# T1 construct: host or cells: U2OS (human bone osteosarcoma epithelial cells), CMV promoter, geneticin selection
# T1 sequence (P21453 with tags, fused parts or gaps): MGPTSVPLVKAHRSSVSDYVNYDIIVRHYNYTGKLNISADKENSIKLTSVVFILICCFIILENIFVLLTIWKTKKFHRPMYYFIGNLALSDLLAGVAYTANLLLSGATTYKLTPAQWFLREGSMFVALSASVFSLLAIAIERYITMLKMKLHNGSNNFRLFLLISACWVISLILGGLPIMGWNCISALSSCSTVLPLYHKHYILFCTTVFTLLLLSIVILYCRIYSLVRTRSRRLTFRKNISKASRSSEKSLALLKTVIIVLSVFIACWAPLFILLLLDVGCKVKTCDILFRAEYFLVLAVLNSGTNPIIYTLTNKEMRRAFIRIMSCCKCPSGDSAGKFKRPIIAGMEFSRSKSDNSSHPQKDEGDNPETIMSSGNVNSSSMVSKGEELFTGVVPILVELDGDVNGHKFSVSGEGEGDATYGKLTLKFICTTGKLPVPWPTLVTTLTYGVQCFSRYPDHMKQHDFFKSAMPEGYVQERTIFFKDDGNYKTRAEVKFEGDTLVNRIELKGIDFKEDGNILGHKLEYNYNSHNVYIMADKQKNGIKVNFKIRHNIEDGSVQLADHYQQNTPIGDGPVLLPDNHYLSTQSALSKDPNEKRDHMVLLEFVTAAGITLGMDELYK
# Method: Cellular Functional Assays: Internalization of Sphingosine-1-Phosphate Receptor 1 (S1P1) in a Human Cell Line (U2OS) in a 384-Well Format Using a Cell Imaging Analysis.
# The S1P1 internalization assay was performed in 384 well plates (Corning® 384 black with clear bottom 3712) using S1P1-U2OS cells from BioImage (C039A), a human epithelial cell line (Human Bone Osteosarcoma Epithelial Cells). These cells expressed the human S1P1 Receptor fused to the green fluorescent protein (EGFP). A standard CMV promoter (cytomegalovirus promoter) controls the expression of S1P1-EGFP and continuous expression was maintained by addition of geneticin to the culture medium.
# S1P1 Receptor desensitization induced the internalization of the membrane-localized S1P1-EGFP fusion protein to endosomes, which can be monitored by cell imaging analysis.
# The cells are plated in low serum medium (Dulbecco's Modified Eagle Medium (DMEM) with Glutamax-1 and high glucose, 1% Penicillin/Streptomycin, 1% Fetal Calf Serum (FCS), 0.5 mg/ml Geneticin) overnight.
# The next day, S1P1-U2OS cells are incubated in 20 μl serum free medium (DMEM with Glutamax-1 and high glucose, 0.1% of fatty-acid free Bovin Serum Albumin (BSA), 10 mM, N′-2-Hydroxyethylpiperazine-N′-2 ethanesulphonic acid (HEPES) 1M) for 2 hours at 37° C./5% CO2.
# The cells are then treated with 4 μl compounds/agonists (6×/3% DMSO) for a total volume of 24 μl, and plates are incubated for 1 hour at 37° C./5% CO2.
# S1P1-U2OS cells are fixed with 25 μl Paraformaldehyde 8% and stained with Hoechst 33345 dye (1:1000) for 20 minutes.
# They were then washed 3 times with Phosphate Buffered Saline (PBS) and plates are sealed.
# The internalization of the receptor S1P1-EGFP is measured on Cellomics by calculating the “spot count per object” (“object” corresponds to nuclear and “spot” corresponds to S1P1-EGFP receptor). Internalization data were observed thanks to vHCS View and analyzed using Genedata® software.
# [2] = 96 well-plate, read-out: S1P1 binding IC50 (M) (96 well-plate)
# [3] = 384 well-plate, read-out: S1P1 binding IC50 (M) (384 well-plate)
# [4] = 96 well-plate, read-out: S1P3 binding IC50 (M) (96 well-plate)
# [5] = 384 well-plate, read-out: S1P3 binding IC50 (M) (384 well-plate)
# S1P1, sequence (P21453 whole entry, species assumed): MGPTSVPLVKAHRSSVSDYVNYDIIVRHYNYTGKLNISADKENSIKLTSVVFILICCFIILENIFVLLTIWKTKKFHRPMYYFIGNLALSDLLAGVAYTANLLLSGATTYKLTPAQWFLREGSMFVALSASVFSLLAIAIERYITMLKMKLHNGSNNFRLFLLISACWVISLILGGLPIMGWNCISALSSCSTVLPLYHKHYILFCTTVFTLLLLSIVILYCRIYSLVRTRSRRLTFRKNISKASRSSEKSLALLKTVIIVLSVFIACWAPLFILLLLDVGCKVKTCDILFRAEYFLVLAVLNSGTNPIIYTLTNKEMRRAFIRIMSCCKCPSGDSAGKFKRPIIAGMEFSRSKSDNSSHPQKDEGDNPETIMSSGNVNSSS
IC50 (S1P1; [2]) [M],IC50 (S1P1; [3]) [M],IC50 (S1P3; [4]) [M],pEC50 [1],IC50 (S1P3; [5]) [M],Compound
5.4e-09,1.73e-08,3.87e-06,7.30,,"O=C(O)CCNc1ncc(-c2noc(-c3ccc(-c4ccccc4F)c(C(F)(F)F)c3)n2)cc1Cl [Example 63, N-(3-chloro-5-{5-[2′-fluoro-2-(trifluoromethyl)biphenyl-4-yl]-1,2,4-oxadiazol-3-yl}pyridin-2-yl)-beta-alanine]"
1.79e-09,1.18e-08,8.55e-07,7.98,1.08e-06,"COCc1cc(-c2nc(-c3ccnc(CN(C)CC(=O)O)c3)no2)ccc1-c1ccccc1C [Example 68, 2-(((4-(5-(2-(methoxymethyl)-2′-methylbiphenyl-4-yl)-1,2,4-oxadiazol-3-yl)pyridin-2-yl)methyl)(methyl)amino)acetic acid]"
,3.4e-09,5.75e-06,7.67,8.92e-06,"CCOc1cc(-c2nc(-c3cnc(NCCC(=O)O)c(Cl)c3)no2)ccc1-c1ccccc1C(F)(F)F [Example 71, N-(3-chloro-5-{5-[2-ethoxy-2′-(trifluoromethyl)biphenyl-4-yl]-1,2,4-oxadiazol-3-yl}pyridin-2-yl)-beta-alanine, hydrochloride salt]"
,9.46e-09,,7.82,2.26e-06,"Cc1ccccc1-c1ccc(-c2nc(-c3ccnc(CN(C)CC(=O)O)c3)no2)cc1C(F)(F)F [Example 75, 2-(((4-(5-(2-(trifluoromethyl)-2′-methylbiphenyl-4-yl)-1,2,4-oxadiazol-3-yl)pyridin-2-yl)methyl)(methyl)amino)acetic acid]"
5.6e-09,,7.44e-06,7.09,8.67e-06,"COCc1cc(-c2nc(-c3cnc(NCCCC(=O)O)c(C)c3)no2)ccc1-c1ccccc1C [Example 57, 4-[(5-{5-[2-(methoxymethyl)-2′-methylbiphenyl-4-yl]-1,2,4-oxadiazol-3-yl}-3-methylpyridin-2-yl)amino]butanoic acid, hydrochloride salt]"
2.6e-09,3.19e-09,1.7e-07,8.04,1.62e-07,"COCc1cc(-c2nc(-c3ccnc(CNCC(=O)O)c3)no2)ccc1-c1ccccc1C [Example 69, 2-((4-(5-(2-(methoxymethyl)-2′-methylbiphenyl-4-yl)-1,2,4-oxadiazol-3-yl)pyridin-2-yl)methylamino)acetic acid]"
2.07e-09,7.95e-09,1.6e-06,7.79,2.41e-06,"CCOc1cc(-c2nc(-c3cnc(NCCC(=O)O)c(Cl)c3)no2)ccc1-c1ccccc1C [Example 65, N-{3-chloro-5-[5-(2-ethoxy-2′-methylbiphenyl-4-yl)-1,2,4-oxadiazol-3-yl]pyridin-2-yl}-beta-alanine, hydrochloride salt]"
2.83e-09,4.34e-09,6.53e-06,7.71,3e-06,"COCc1cc(-c2nc(-c3cnc(Cl)c(F)c3)no2)ccc1-c1ccccc1C [Example 60, 2-chloro-3-fluoro-5-{5-[2-(methoxymethyl)-2′-methylbiphenyl-4-yl]-1,2,4-oxadiazol-3-yl}pyridine]"

# Continued, molecule first:
Compound,IC50 (S1P1; [2]) [M],IC50 (S1P1; [3]) [M],IC50 (S1P3; [4]) [M],pEC50 [1],IC50 (S1P3; [5]) [M]
"COCc1cc(-c2nc(-c3cnc(NCCCC(=O)O)c(Cl)c3)no2)ccc1-c1ccccc1F [Example 54, 4-[(3-chloro-5-{5-[2′-fluoro-2-(methoxymethyl)biphenyl-4-yl]-1,2,4-oxadiazol-3-yl}pyridin-2-yl)amino]butanoic acid, hydrochloride salt]",2.01e-09,,9.32e-07,7.79,
"COCc1cc(-c2nc(-c3cnc(NCCC(=O)O)c(Cl)c3)no2)ccc1-c1ccccc1Cl [Example 50, N-(3-chloro-5-{5-[2′-chloro-2-(methoxymethyl)biphenyl-4-yl]-1,2,4-oxadiazol-3-yl}pyridin-2-yl)-beta-alanine, hydrochloride salt]",1.58e-09,1.98e-08,5.82e-06,7.76,9.45e-06
"COCc1cc(-c2nc(-c3ccc(NCC(O)CO)nc3)no2)ccc1-c1ccccc1C (stereo not shown) [Example 45, 3-[(5-{5-[2-(methoxymethyl)-2′-methylbiphenyl-4-yl]-1,2,4-oxadiazol-3-yl}pyridin-2-yl)amino]propane-1,2-diol, hydrochloride salt]",2.88e-09,1.4e-08,9.31e-06,7.65,7.94e-06
"CCc1ccccc1-c1ccc(-c2nc(-c3cnc(N)c(Cl)c3)no2)cc1COC [Example 43, 3-chloro-5-{5-[2′-ethyl-2-(methoxymethyl)biphenyl-4-yl]-1,2,4-oxadiazol-3-yl}pyridin-2-amine]",2.44e-09,4.1e-08,1.12e-05,7.47,
"COCc1cc(-c2nc(-c3ccc(N)nc3)no2)ccc1-c1ccccc1F [Example 52, 5-{5-[2′-fluoro-2-(methoxymethyl)biphenyl-4-yl]-1,2,4-oxadiazol-3-yl}pyridin-2-amine]",1.65e-09,1.82e-08,3.62e-06,7.64,3.25e-06
"COCc1cc(-c2nc(-c3cnc(NCCC(=O)O)c(C)c3)no2)ccc1-c1ccccc1F [Example 53, N-(5-{5-[2′-fluoro-2-(methoxymethyl)biphenyl-4-yl]-1,2,4-oxadiazol-3-yl}-3-methylpyridin-2-yl)-beta-alanine, hydrochloride salt]",6.38e-09,,3.1e-06,7.00,
"COCc1cc(-c2nc(-c3cnc(N)c(Cl)c3)no2)ccc1-c1ccccc1F [Example 46, 3-chloro-5-{5-[2′-fluoro-2-(methoxymethyl)biphenyl-4-yl]-1,2,4-oxadiazol-3-yl}pyridin-2-amine]",3.31e-09,4.42e-08,7.21e-06,7.23,
"COCc1cc(-c2nc(-c3cnc(NCCC(=O)O)c(Cl)c3)no2)ccc1-c1ccccc1F [Example 48, N-(3-chloro-5-{5-[2′-fluoro-2-(methoxymethyl)biphenyl-4-yl]-1,2,4-oxadiazol-3-yl}pyridin-2-yl)-beta-alanine, hydrochloride salt]",3.15e-09,,1.37e-06,7.54,
"COCc1cc(-c2nc(-c3cnc(NCCCC(=O)O)c(Cl)c3)no2)ccc1-c1ccccc1C [Example 56, 4-[(3-chloro-5-{5-[2-(methoxymethyl)-2′-methylbiphenyl-4-yl]-1,2,4-oxadiazol-3-yl}pyridin-2-yl)amino]butanoic acid, hydrochloride salt]",1.71e-09,4.77e-09,2.09e-06,7.39,1.71e-06
"COCc1cc(-c2nc(-c3ccc(NCCCCO)nc3)no2)ccc1-c1ccccc1C [Example 51, 4-[(5-{5-[2-(methoxymethyl)-2′-methylbiphenyl-4-yl]-1,2,4-oxadiazol-3-yl}pyridin-2-yl)amino]butan-1-ol, hydrochloride salt]",1.05e-08,,1.79e-05,7.07,2e-05
